Test results reported in PubChem BioAssay AID463203 (Broad Institute, 2010).
The source made the active and inactive calls.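 How the source made its calls: active means more than half of replicate measurements showing over 20% loss of kinase signal relative to plate controls; inconclusive means some but at most half of replicates over 20% loss; inactive means no replicate over 20% signal loss.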

The molecules below were run against Glycogen synthase kinase-3 alpha (Homo sapiens) (UniProt P49840) (assay: concentration-response blocking of human GSK3A – biochemical, luminescence, cell-free homogeneous, retest, dose response (AID 463203)). Details: GSK-3 alpha enzyme, ADP-Glo luminescence, 60 min.
Sequence of Glycogen synthase kinase-3 alpha (Homo sapiens) (P49840 whole entry, looked up): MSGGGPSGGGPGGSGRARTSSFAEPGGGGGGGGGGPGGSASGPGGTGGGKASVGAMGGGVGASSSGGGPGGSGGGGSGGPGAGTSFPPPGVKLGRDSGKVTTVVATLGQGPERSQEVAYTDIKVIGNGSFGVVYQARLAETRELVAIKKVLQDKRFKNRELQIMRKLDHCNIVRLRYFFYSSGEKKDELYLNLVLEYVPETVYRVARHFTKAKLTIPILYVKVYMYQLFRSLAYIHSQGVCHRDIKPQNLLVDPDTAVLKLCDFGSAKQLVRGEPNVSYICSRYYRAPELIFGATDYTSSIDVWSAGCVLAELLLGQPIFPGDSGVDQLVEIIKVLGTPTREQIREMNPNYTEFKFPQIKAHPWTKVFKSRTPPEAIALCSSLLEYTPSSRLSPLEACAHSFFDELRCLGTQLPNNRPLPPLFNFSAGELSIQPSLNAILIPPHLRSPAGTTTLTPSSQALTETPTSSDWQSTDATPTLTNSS

Row | Structure (SMILES) | AC50
1 | COc1cc(/C=C/c2nc(N)nc(-c3ccccc3O)n2)cc(OC)c1OC | > 30 µM (inactive)
2 | CSc1ccc(/C=C2\NC(=O)NC2=O)cc1 | 27.9 µM
3 | NC(=O)NCC12CC3CC(CC(C3)C1)C2 | > 30 µM (inactive)
4 | CCOc1ccc(/C=C/C2=Cc3c(sc(NC(=O)CSc4n[nH]c(N)n4)c3C#N)C(C)(C)C2)cc1 | > 30 µM (inactive)
5 | CCOc1ccc(Cn2nnc(C(=O)Nc3cc(OC)cc(OC)c3)c2N)cc1 | 13.7 µM
6 | CC(C)OC(=O)CSc1nc(N)c(C#N)c(-c2ccco2)c1C#N | > 30 µM (inactive)
7 | CN1CCN(c2ccccc2NC(=O)c2ccc(-c3ccccc3[N+](=O)[O-])o2)CC1 | 4.6 µM
8 | CSc1cccc(NC(=O)CN(C)S(=O)(=O)c2cnc[nH]2)c1 | > 30 µM (inactive)
9 | Cc1cc(=O)[nH]c2c(C)cc(S(=O)(=O)Nc3ccc(O)cc3)cc12 | > 30 µM (inactive)
10 | COc1ccc2cc(C(N)=O)c(=Nc3ccccc3)oc2c1 | > 30 µM (inactive)
11 | CC(C)Nc1nc(NC(C)C)nc(C(=O)OCCO)n1 | > 30 µM (inactive)
12 | O=C(NCCCn1ccnc1)C(F)(F)C(F)(F)C(=O)NCCCn1ccnc1 | > 30 µM (inactive)
13 | CCN1C(=S)SC(=O)C1=C1C=C(C)N(Cc2ccco2)C(C)=C1 | > 30 µM (inactive)
14 | CC1CCN(CCCNc2cc(NCCO)c([N+](=O)[O-])c3nonc23)CC1 | > 30 µM (inactive)
15 | Cc1ccc(NC(=O)CSCc2ccco2)cc1 | > 30 µM (inactive)
16 | CCOC(=O)N1CCC(N2CCN(S(=O)(=O)c3ccc(NC(C)=O)cc3)CC2)CC1 | > 30 µM (inactive)
17 | CC(=O)C1C(c2ccc(C)cc2)c2c(n[nH]c2C)CC1(C)O (centres undefined) | > 30 µM (inactive)
18 | O=C1OCCC1Sc1nnc(-c2ccc3c(c2)OCO3)o1 (centres undefined) | 25.9 µM
19 | CCc1ccc(C2CC(c3cccc(Cl)c3)n3nc(N)nc3N2)cc1 (centres undefined) | > 30 µM (inactive)
20 | Cc1ccc(C2C3=C(CCCC3=O)Nc3c2c(C)nn3-c2ccccn2)o1 (centres undefined) | > 30 µM (inactive)
21 | COc1ccc(-c2oc3cc(O)c(OC)c(O)c3c(=O)c2OC)cc1 | > 30 µM (inactive)
22 | COc1ccc(OC)c(C2CC(=O)N3CN(c4cccc(Cl)c4)CSC3=C2C#N)c1 (centres undefined) | > 30 µM (inactive)
23 | O=C(c1ccco1)N(Cc1ccc([N+](=O)[O-])cc1)c1ccc(Br)cc1 | > 30 µM (inactive)
24 | CN1CCc2nc3sc(C(=O)NC4CC4)c(N)c3cc2C1 | > 30 µM (inactive)
25 | CCC(Oc1ccccc1)C(=O)N(C)CC(=O)N(CC(C)C)c1c(N)n(CC(C)C)c(=O)[nH]c1=O (centres undefined) | > 30 µM (inactive)

Row | Structure (SMILES) | AC50
26 | CCOc1ccc(Nc2nc(N)c3ccccc3n2)cc1 | 31.2 µM
27 | CCSc1cc(N2CCCC2)nc(-c2ccccc2)n1 | > 30 µM (inactive)
28 | COc1cccc(-c2cc(C(=O)N3CCN(c4ccccc4OC)CC3)no2)c1 | > 30 µM (inactive)
29 | Cc1nc(NCCc2ccccc2)c(C#N)c(C)c1[N+](=O)[O-] | > 30 µM (inactive)
30 | CC(C)(C)NCC(O)COc1ccccc1C(C)(C)C (centres undefined) | > 30 µM (inactive)
31 | C[C@H](CO)N1C[C@H](C)[C@@H](CN(C)S(=O)(=O)c2ccc(F)cc2)Oc2c(NC(=O)Cc3ccccc3)cccc2C1=O | > 30 µM (inactive)
32 | CC(C)c1onc(C(=O)N(C)C2CCCCC2)c1[N+](=O)[O-] | > 30 µM (inactive)
33 | C=CCNc1nc(N)c(C(=O)c2ccc3c(c2)OCO3)s1 | 0.211 µM
34 | COc1ccc(OCC(=O)NCCCn2ccnc2)cc1 | > 30 µM (inactive)
35 | OCc1nnn(-c2ccccc2)c1CO | > 30 µM (inactive)
36 | S=c1sc2ccccc2n1CCc1ccncc1 | 4.51 µM
37 | COC(=O)C1(C#N)C(c2ccccc2)C1(C(=O)OC)C(=O)OC (centres undefined) | > 30 µM (inactive)
38 | N#CCSc1nnc(-c2ccc3c(c2)OCO3)o1 | 18.1 µM
39 | Cc1c(C(=O)OC(C)C)[nH]c2c1C(=O)CCC2 | > 30 µM (inactive)
40 | C[n+]1cccc(/C=N/Nc2nc(Cl)c(C#N)c(Cl)c2Cl)c1 | > 30 µM (inactive)
41 | Fc1ccccc1-c1n[nH]c(=S)n1/N=C/c1c[nH]c2ccccc12 | 22.5 µM
42 | COc1ccc(/C=N/NC(=O)c2nnn(-c3nonc3N)c2-c2cccs2)cc1OC | 1.41 µM
43 | COC(=O)c1sc2cnccc2c1N | 24.8 µM
44 | O=c1[nH]c2c(s1)C(c1ccc(O)cc1)C1C3CCC(C3)C1S2 (centres undefined) | 0.649 µM
45 | CCN=C1S/C(=C/c2ccc(-c3ccc(Cl)cc3C(=O)O)o2)C(=O)N1CC | 4.3 µM
46 | CCOC(=O)c1c(NC(=O)CN2C(=O)NC3(CCCCC3C)C2=O)sc(C)c1CC (centres undefined) | > 30 µM (inactive)
47 | Cc1cc(C)nc(NS(=O)(=O)c2cccs2)c1 | > 30 µM (inactive)
48 | CCCc1nnc(NC(=O)CCN2C(=O)c3ccccc3C2=O)s1 | > 30 µM (inactive)
49 | Cc1ccc2cc(C#N)c(N3CCCN(C(=S)NCCCN(C)C)CC3)nc2c1 | > 30 µM (inactive)
50 | N#Cc1c(-c2ccccc2)nc(SCc2ccc(Cl)cc2)[nH]c1=O | > 30 µM (inactive)

Row | Structure (SMILES) | AC50
51 | COc1ccccc1Nc1nc2c(s1)CCC2 | > 30 µM (inactive)
52 | COc1ccc(/C=C(\C#N)C(=O)N=CN(C)C)cc1 | > 30 µM (inactive)
53 | COC(=O)C1=C(C)NC(=O)NC1c1ccc2c(c1)OCO2 (centres undefined) | > 30 µM (inactive)
54 | CC(=O)c1cc(-c2ccc(F)cc2)n(CCC(=O)NC(C)(C)C)c1C | > 30 µM (inactive)
55 | COc1cccc(C2CC(=O)N3CN(c4ccccc4F)CSC3=C2C#N)c1 (centres undefined) | > 30 µM (inactive)
56 | CC(C)COc1ncnc2c1sc1nc3c(cc12)COC(C)(C)C3 | > 30 µM (inactive)
57 | COc1c(OC)c(O)c2c(=O)c(O)c(-c3ccccc3)oc2c1OC | > 30 µM (inactive)
58 | COc1ccc(OC)c(C2CC(=O)Nc3n[nH]c(-c4ccccc4)c32)c1 (centres undefined) | > 30 µM (inactive)
59 | COC(=O)c1ccc2c(=O)[nH]c(COC(=O)c3cccc(S(=O)(=O)N4CCOCC4)c3)nc2c1 | 6.88 µM
60 | CC(=O)Nc1ccc(C2(c3ccc(NC(C)=O)cc3)NC(=O)c3ccccc32)cc1 | > 30 µM (inactive)
61 | CC(C)(C)OC(=O)N1CCC(NC(=O)c2nc[nH]c2C(=O)NC2CCN(C(=O)OC(C)(C)C)CC2)CC1 | > 30 µM (inactive)
62 | Cc1cnn(-c2cc(N/N=C/c3ccc(F)cc3)ncn2)c1 | > 30 µM (inactive)
63 | COc1ccccc1N=c1oc2c(OC)cccc2cc1C(=O)NCc1ccco1 | > 30 µM (inactive)
64 | Cc1nnc(SCC(=O)N2c3ccccc3CC2C)s1 (centres undefined) | > 30 µM (inactive)
65 | Oc1ccc(-c2nnc(-c3ccccc3)c(-c3ccccc3)n2)cc1 | > 30 µM (inactive)
66 | CCCN(CCC)Cc1c(C(=O)N/N=C/C(C)=C\c2ccco2)nnn1-c1nonc1N | > 30 µM (inactive)
67 | CCOc1ccc(-n2c(SCC(=O)Nc3ccccc3C)n[nH]c2=O)cc1 | > 30 µM (inactive)
68 | CCCCn1c(O)c(C(CC)=NCCCn2ccnc2)c(=O)[nH]c1=O | 13.9 µM
69 | Cc1ccc(Cc2c(C)nc3nc(SCC(=O)NCCCN4CCCCCC4)nn3c2C)cc1 | > 30 µM (inactive)
70 | O=Cc1cn(-c2ccccc2)nc1-c1ccc2c(c1)OCCO2 | > 30 µM (inactive)
71 | O=C(NC1=NCCS1)c1ccc(Cl)cc1 | > 30 µM (inactive)
72 | c1cncc(-c2nc3ccccc3[nH]2)c1 | > 30 µM (inactive)
73 | O=C(CCc1nnc(-c2ccc3c(c2)OCO3)o1)N1CCC(c2ccc(F)cc2)C1 (centres undefined) | 10 µM
74 | COc1cc(/C=N/NC(=O)CSCc2ccc([N+](=O)[O-])cc2)cc(OC)c1OC | > 30 µM (inactive)
